Experimental data taken from US20210127719A1, “AROMATIC MIXTURE FOR REDUCING THE ODOR OR TASTE OF BIOGENIC AMINES” (SYMRISE AG, priority 2016, published 2021).

Assays:
[1] = Fish sauce triangle test with odor description
Description: The panelists received the following instruction: Please smell the three samples and mark the sensorially deviating samples with a cross. In any case, one of the samples must be ticked, even if no difference can be noted.

[2] = Panel rating of odor attributes of soy sauce containing biogenic amines, with and without added compound; details: panelists n=6-8, scale 0-10, versus product alone
Description: The panelists (n=6-8) rate the attributes animalistic—fishy, metallic as well as woody, sweet, flowery and terpenic, herbal on an unstructured scale from 0 (no taste)—10 (strong taste). Thereby, the order is arbitrary and not known by the panelists beforehand.

[3] = dosage of the compound 0.1 mg/kg
[4] = dosage of the compound 0.5 mg/kg

SMILES | Odor description (indication of relative change in percent) Animalistic-fishy, metallic [2, 4] [%] | Odor description (indication of relative change in percent) Terpenig, herbal [2, 4] [%] | Odor description (indication of relative change in percent) Woody, sweet, flowery [2, 4] [%] | Odor description (indication of relative change in percent) Animalistic-fishy, metallic ([2]; dosage of the compound 1 mg/kg) [%] | Odor description (indication of relative change in percent) Terpenig, herbal ([2]; dosage of the compound 1 mg/kg) [%] | Odor description (indication of relative change in percent) Woody, sweet, flowery ([2]; dosage of the compound 1 mg/kg) [%] | further results
CCc1ncc(C)nc1CC [2,3-Diethyl-5-methyl-pyrazine, 2,3-diethyl-5-methyl-pyrazine] | – | – | – | – | – | – | Odor description [1, 3]: metallic, dusty,
CC1CCc2nccnc21 (centres unmarked) [5-Methyl-6,7-dihydrocyclopentapyrazine, 5-methyl-6,7-dihydro-5H-cyclopenta[b]pyrazine] | −7.4 | −5.2 | −10.0 | – | – | – | Odor description ([1]; dosage of the compound 0.05 mg/kg): not fishy, less silage notes,
CC(=O)/C=C/C1C(C)=CCCC1(C)C (stereo not drawn) [Alpha ionone, (E)-4-(2,6,6-trimethylcyclohex-2-en-1-yl)but-3-en-2-one] | – | – | – | −20.5 | −7.6 | −4.4 | Odor description [1, 3]: bready, earthy,
CC1=CCCC(C)(C)C1/C=C/C(C)O (stereo not drawn) [Alpha-Ionol, (E)-4-(2,6,6-trimethylcyclohex-2-en-1-yl)but-3-en-2-ol] | – | – | – | – | – | – | Odor description [1, 4]: bready, earthy, rounded
C/C=C/C(=O)C1C(C)=CCCC1(C)C (stereo not drawn) [Alpha-damascone, (E)-1-(2,6,6-trimethylcyclohex-2-en-1-yl)but-2-en-1-one] | – | – | – | – | – | – | Odor description ([1]; dosage of the compound 0.2 mg/kg): cocoa note, sweet,
CC(=O)/C=C/C12OC1(C)CCCC2(C)C (stereo not drawn) [Beta epoxyionone, (E)-4-(1,5,5-trimethyl-7-oxabicyclo[4.1.0]heptan-6-yl)but-3-en-2-one] | −5.4 | 21.1 | 22.8 | – | – | – | –
CC(=O)/C=C/C1=C(C)CCCC1(C)C [Beta ionone, (E)-4-(2,6,6-trimethylcyclohex-1-en-1-yl)but-3-en-2-one] | – | – | – | – | – | – | Odor description [1, 4]: less silage notes,; Odor description (indication of relative change in percent) Animalistic-fishy, metallic ([2]; dosage of the compound 2 mg/kg): 2.4%; Odor description (indication of relative change in percent) Terpenig, herbal ([2]; dosage of the compound 2 mg/kg): −28.9%; Odor description (indication of relative change in percent) Woody, sweet, flowery ([2]; dosage of the compound 2 mg/kg): 51.9%
CC1=CC=C2C(C)(C)CCCC2(C)O1 (centres unmarked) [Cycloionone, 2,5,5,8a-tetramethyl-7,8-dihydro-6H-chromene] | 2.3 | 19.6 | 33.8 | – | – | – | –
CC(=O)CCC1=C(C)CCCC1(C)C [Dihydroionone] | 8.9 | −8.3 | 9.5 | – | – | – | –
CC1=CC(C)C(C=O)C(C)C1 (centres unmarked) [Isocyclocitral] | – | – | – | – | – | – | Odor description ([1]; dosage of the compound 1 mg/kg): bready, rounded,
CCC(O)CCC1C(C)CCCC1(C)C (centres unmarked) [Madranol, 1-(2,2,6-trimethylcyclohexyl)pentan-3-ol] | – | – | – | −13.9 | −6.0 | 6.6 | –
C/C=C/C=C1/C(C)=CC(=O)CC1(C)C [Tabanon, (4E)-4-[(E)-but-2-enylidene]-3,5,5-trimethyl-cyclohex-2-en-1-one] | – | – | – | −18.8 | −8.2 | 13.7 | Odor description [1, 4]: bready, less
CCCC(O)CCC1C(C)CCCC1(C)C (centres unmarked) [Timberol, 1-(2,2,6-trimethylcyclohexyl)hexan-3-ol] | – | – | – | −26.5 | −3.8 | 27.9 | –
